These results are taken from patent US6376497B1, “Antifungal azole derivatives having a fluorinated vinyl group and process for preparing same” (Korea Research Institute of Chemical Technology, priority 1999, dated 2002).

What all share (assay): In vitro antifungal activity, microbroth dilution MIC
What all share (assay type): cell-based
A general note: Broth dilution looks for growth in wells or tubes with falling amounts of substance.

Assay [1] concerns Cryptococcus neoformans A. 34144. To be noted: 4 to 48 hours; for Minimal inhibitory concentration(MIC), Cry. neoformans A. 34144: RPMI-1640, 35° C., no growth observed. Here is the method:
(§1) In vitro antifungal activities of the inventive antifungal compounds were evaluated using the test strains shown in Table VIII by the following microbroth dilution method which is a modified version of the procedure recommended by National Committee for Clinical Laboratory Standards(see National Committee for Clinical Laboratory Standards, 1992, Reference methods for broth dilution antifungal susceptibility testing of yeasts, Proposed standard M27-P, National Committee for clinical laboratory standards, Villanova, Pa; and National Committee for Clinical Laboratory Standards, 1995, Reference methods for broth dilution antifungal susceptibility testing of yeasts. Tentative standard M27-T, National Committee for clinical laboratory standards, Villanova, Pa).
(§2) Sabourad Dextrose Agar(Difco) was used as a culture medium, and RPMI-1640 broth(Sigma. Co. w/L-glutamine, wo/NaHCO3)(0.165 M MOPS, pH 7.0), as a dilution medium.
(§3) Each of the test strains were subcultured in Sabourad Dextrose Agar medium twice and a stain sample was taken from prominent colonies and suspended in sterile physiological saline solution in a cap tube. The turbidity of the suspension was adjusted to that of the Mcfarland 0.5 standard sample(approximately 10^6 CFU/ml). Then the suspension was diluted 500-fold with sterile RPMI-1640 liquid medium to 2×10^3 CFU/ml.
(§4) Each of the test compounds(the compounds obtained in Examples 1 to 150 and comparative compounds, i.e., fluconazole(FCZ) and itraconazole (ICZ)), was dissolved in DMSO to give a stock solution having a concentration of 4000 μg/ml and the stock solution was successively diluted to obtain test solutions having test compound concentrations of 200, 100, 50, 25, 12.5, 6.25, 3.13, 1.56, 0.78, 0.39, 0.20 and 0.10 μg/ml, respectively.
(§5) 0.1 ml portion of the test solutions were added to the wells of a sterile 96 well plate. Then, 0.1 ml portion of each of the test strain solutions were added successively to the wells and the plate was incubated at 35° C. for 4 to 48 hours.
(§6) Minimal inhibitory concentration(MIC) of each compound was defined as the concentration of the test compound where no growth of the strain could be observed.

In assay [2] the test system is Trichophyton mentagrophytes A. 9129. To be noted: 4 to 48 hours; for Minimal inhibitory concentration(MIC), T. mentagrophytes A. 9129: RPMI-1640, 35° C., no growth observed. As for the experimental part:
as §1, §2, §3, §4, §5, §6

The test system of assay [3] is Torulopsis glabrata B. 16205. To be noted: 4 to 48 hours; for Minimal inhibitory concentration(MIC), T. glabrata B. 16205: RPMI-1640, 35° C., no growth observed. As for the experimental part: as §1, §2, §3, §4, §5, §6
Assay [4] relates to Candida pseudotropicalis K. 11658. To be noted: 4 to 48 hours; for Minimal inhibitory concentration(MIC), C. pseudotropicalis K. 11658: RPMI-1640, 35° C., no growth observed. As for the experimental part: as §1, §2, §3, §4, §5, §6
The test system of assay [5] is Trichophyton mentagrophytes B. 32663. To be noted: 4 to 48 hours; for Minimal inhibitory concentration(MIC), T. mentagrophytes B. 32663: RPMI-1640, 35° C., no growth observed. As for the experimental part: as §1, §2, §3, §4, §5, §6
Assay [6] concerns Cryptococcus neoformans IFM. 40092. To be noted: 4 to 48 hours. Here is the method:
as §1, §2, §3, §4, §5, §6

Assay [7] deals with Aspergillus furnigatus B. 19119. To be noted: 4 to 48 hours; for Minimal inhibitory concentration(MIC), A furnigatus B. 19119: RPMI-1640, 35° C., no growth observed. As for the experimental part: as §1, §2, §3, §4, §5, §6
Assay [8] concerns Candida parapsitosis A. 7330. To be noted: 4 to 48 hours; for Minimal inhibitory concentration(MIC), C. parapsitosis A. 7330: RPMI-1640, 35° C., no growth observed. Here is the method:
as §1, §2, §3, §4, §5, §6

For assay [9], the system named is Candida albicans IFO. 1385. To be noted: 4 to 48 hours; for Minimal inhibitory concentration(MIC), C. albicans IFO. 1385: RPMI-1640, 35° C., no growth observed. Here is the method:
as §1, §2, §3, §4, §5, §6

Assay [10] deals with Candida albicans C1-2. To be noted: 4 to 48 hours; for Minimal inhibitory concentration(MIC), C. albicans C1-2: RPMI-1640, 35° C., no growth observed. As for the experimental part:
as §1, §2, §3, §4, §5, §6

The subject of assay [11] is Candida tropicalis A. 13803. To be noted: 4 to 48 hours; for Minimal inhibitory concentration(MIC), C. tropicalis A. 13803: RPMI-1640, 35° C., no growth observed. As for the experimental part: as §1, §2, §3, §4, §5, §6
Assay [12] relates to Cryptococcus neoformans B. 42419. To be noted: 4 to 48 hours; for Minimal inhibitory concentration(MIC), Cry. neoformans B. 42419: RPMI-1640, 35° C., no growth observed. Here is the method:
as §1, §2, §3, §4, §5, §6

Assay [13] concerns Aspergillus niger A. 16404. To be noted: 4 to 48 hours; for Minimal inhibitory concentration(MIC), A. niger A. 16404: RPMI-1640, 35° C., no growth observed. Here is the method: as §1, §2, §3, §4, §5, §6
Assay [14] relates to Candida krusei K. 11655. To be noted: 4 to 48 hours; for Minimal inhibitory concentration(MIC), C. krusei K. 11655: RPMI-1640, 35° C., no growth observed. Here is the method: as §1, §2, §3, §4, §5, §6
For assay [15], the system named is Candida albicans A. 10231. To be noted: RPMI-1640, 35° C., 4 to 48 hours, no growth observed. Here is the method:
as §1, §2, §3, §4, §5, §6

SMILES strings stand for the structures.

With `FC(=Cc1ccc2c(c1)OCO2)OCC1COC(Cn2ccnc2)(c2ccc(F)cc2F)O1` (mixture of isomers) [Ex. 46], the “Minimal inhibitory concentration (MIC)” value in assay [1] (Cry. neoformans A. 34144, RPMI-1640, 35° C.) is 0.78 µg/mL; in assay [2] (T. mentagrophytes A. 9129, RPMI-1640, 35° C.) it was 0.39 µg/mL; in assay [3] (T. glabrata B. 16205, RPMI-1640, 35° C.), 12.5 µg/mL; in assay [4] (C. pseudotropicalis K. 11658, RPMI-1640, 35° C.), 12.5 µg/mL; in assay [5] (T. mentagrophytes B. 32663, RPMI-1640, 35° C.) it was 0.20 µg/mL; in assay [6] (Cry. neoformans IFM. 40092, RPMI-1640, 35° C.) it was “≦0.10 μg/ml”. For the same molecule, the “Minimal inhibitory concentration (MIC)” value in [7] (A furnigatus B. 19119, RPMI-1640, 35° C.) was 1.56 µg/mL; in [8] (C. parapsitosis A. 7330, RPMI-1640, 35° C.), 25.0 µg/mL; in assay [9] (C. albicans IFO. 1385, RPMI-1640, 35° C.), “≦0.10 μg/ml”; in [10] (C. albicans C1-2, RPMI-1640, 35° C.), 25.0 µg/mL; in [11] (C. tropicalis A. 13803, RPMI-1640, 35° C.) it was 50.0 µg/mL; in assay [12] (Cry. neoformans B. 42419, RPMI-1640, 35° C.), 0.78 µg/mL. The “Minimal inhibitory concentration (MIC)” value in assay [13] (A. niger A. 16404, RPMI-1640, 35° C.) turned out to be 12.5 µg/mL; in assay [14] (C. krusei K. 11655, RPMI-1640, 35° C.) it was 25.0 µg/mL.
For the molecule `CCc1ccc(C(=C(F)Oc2ccc(OCC3COC(Cn4ccnc4)(c4ccc(Cl)cc4Cl)O3)cc2)C(F)(F)F)cc1` (mixture of isomers) [Ex. 95], the “Minimal inhibitory concentration(MIC), Cry. neoformans A. 34144” value in assay [1] was determined as 3.13 µg/mL. For the same molecule, the “Minimal inhibitory concentration(MIC), T. mentagrophytes A. 9129” value in [2] is 50.0 µg/mL. Also, in [3], the “Minimal inhibitory concentration(MIC), T. glabrata B. 16205” value was over 100 µg/mL. Also, in assay [4], the “Minimal inhibitory concentration(MIC), C. pseudotropicalis K. 11658” value was over 100 µg/mL. In assay [5], the “Minimal inhibitory concentration(MIC), T. mentagrophytes B. 32663” value is 50.0 µg/mL. For the same molecule, in assay [7], the “Minimal inhibitory concentration(MIC), A furnigatus B. 19119” value is over 100 µg/mL. Besides, in [15], the “Minimal inhibitory concentration(MIC), C. albicans A. 10231” value is over 100 µg/mL. The “Minimal inhibitory concentration(MIC), C. parapsitosis A. 7330” value in assay [8] was over 100 µg/mL. Moreover, the “Minimal inhibitory concentration(MIC), C. albicans IFO. 1385” value in [9] amounted to 6.25 µg/mL. Moreover, in assay [10], the “Minimal inhibitory concentration(MIC), C. albicans C1-2” value is over 100 µg/mL. Also, the “Minimal inhibitory concentration(MIC), C. tropicalis A. 13803” value in assay [11] was over 100 µg/mL. For the same molecule, the “Minimal inhibitory concentration(MIC), Cry. neoformans B. 42419” value in [12] stood at 6.25 µg/mL. In addition, the “Minimal inhibitory concentration(MIC), A. niger A. 16404” value in assay [13] was over 100 µg/mL. The “Minimal inhibitory concentration(MIC), C. krusei K. 11655” value in assay [14] is over 100 µg/mL.
With `Cc1ccc(C(=C(F)N2CCN(c3ccc(OCC4COC(Cn5ccnc5)(c5ccc(Cl)cc5Cl)O4)cc3)CC2)C(F)(F)F)cc1` (mixture of isomers) [Ex. 126], the “Minimal inhibitory concentration(MIC), Cry. neoformans A. 34144” value in assay [1] amounted to 0.78 µg/mL. Further, the “Minimal inhibitory concentration(MIC), T. mentagrophytes A. 9129” value in assay [2] came to 12.5 µg/mL. Besides, in assay [3], the “Minimal inhibitory concentration(MIC), T. glabrata B. 16205” value is over 100 µg/mL. Also, the “Minimal inhibitory concentration(MIC), C. pseudotropicalis K. 11658” value in [4] is 1.56 µg/mL. Moreover, the “Minimal inhibitory concentration(MIC), T. mentagrophytes B. 32663” value in assay [5] turned out to be 6.25 µg/mL. In addition, in [6] (RPMI-1640, 35° C., no growth observed), the “Minimal inhibitory concentration(MIC), Cry. neoformans IFM. 40092” value was “≦0.10 μg/ml”. In [7], the “Minimal inhibitory concentration(MIC), A furnigatus B. 19119” value is over 100 µg/mL. In addition, the “Minimal inhibitory concentration(MIC), C. parapsitosis A. 7330” value in assay [8] worked out at 3.13 µg/mL. In addition, the “Minimal inhibitory concentration(MIC), C. albicans IFO. 1385” value in assay [9] was 1.56 µg/mL. Further, the “Minimal inhibitory concentration(MIC), C. albicans C1-2” value in assay [10] was over 100 µg/mL. Also, in [11], the “Minimal inhibitory concentration(MIC), C. tropicalis A. 13803” value is over 100 µg/mL. For the same molecule, the “Minimal inhibitory concentration(MIC), Cry. neoformans B. 42419” value in assay [12] amounted to 0.78 µg/mL. The “Minimal inhibitory concentration(MIC), A. niger A. 16404” value in assay [13] is over 100 µg/mL. Further, in [14], the “Minimal inhibitory concentration(MIC), C. krusei K. 11655” value is 3.13 µg/mL.
